Reference: ChEMBL document CHEMBL4673209, “Discovery of a novel potent GPR40 full agonist” (Bioorg Med Chem Lett, 2018)
Activity calls are given as the source filed them. The calls are words filed in the database; no cut-off is given here.

Key:
[1] = biological target: Free fatty acid receptor 1 (Rattus norvegicus, UniProt Q8K3T4); test: Agonist activity at GPR40 receptor in rat INS1(832/13) cells assessed as induction of IP1 accumulation; assay type: functional, cell-based, INS-1 832/13
[2] = Hepatic clearance in rat; assay type: ADME; conditions: in vivo
[3] = biological target: Free fatty acid receptor 1 (Rattus norvegicus) (UniProt Q8K3T4); test: Agonist activity at GPR40 receptor in rat INS1(832/13) cells assessed as induction of IP1 accumulation at 10 uM; assay type: functional, cell-based; conditions: INS-1 832/13, filed as agonist
[4] = Drug metabolism in rat assessed as (3S)-3-cyclopropyl-3-(3-((5-(5-fluoro-2-hydroxypyridin-4-yl)-6-isobutylpyrazin-2-yl)methoxy)phenyl)propanoic acid metabolite formation by MetID studies; assay type: ADME
[5] = Cmax in dog; assay type: ADME, Canis lupus familiaris; conditions: in vivo
[6] = Oral bioavailability in dog; assay type: ADME, organism-based, Canis lupus familiaris; conditions: in vivo
[7] = biological target: T1, Peroxisome proliferator-activated receptor gamma (Homo sapiens) (UniProt P37231); test: Agonist activity at PPARgamma (unknown origin); assay type: cell-based; conditions: HEK293
T1 sequence (whole entry): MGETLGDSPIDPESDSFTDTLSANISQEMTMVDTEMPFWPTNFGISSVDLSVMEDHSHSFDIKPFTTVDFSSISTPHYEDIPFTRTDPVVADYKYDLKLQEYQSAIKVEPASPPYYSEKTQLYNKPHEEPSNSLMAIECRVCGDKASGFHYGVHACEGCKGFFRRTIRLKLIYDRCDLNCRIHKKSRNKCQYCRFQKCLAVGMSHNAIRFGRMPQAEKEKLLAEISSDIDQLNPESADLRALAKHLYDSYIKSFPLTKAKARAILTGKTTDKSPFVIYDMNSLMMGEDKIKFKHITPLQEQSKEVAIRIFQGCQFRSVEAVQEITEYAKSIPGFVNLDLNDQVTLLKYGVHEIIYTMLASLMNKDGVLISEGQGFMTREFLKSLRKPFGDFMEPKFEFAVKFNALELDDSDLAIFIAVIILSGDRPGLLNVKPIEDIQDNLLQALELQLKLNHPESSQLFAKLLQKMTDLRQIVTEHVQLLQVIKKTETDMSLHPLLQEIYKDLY

[8] = Protein binding in human plasma; assay type: ADME, cell-free; conditions: read-out: PPB (converted)
[9] = biological target: T2, Free fatty acid receptor 1 (Homo sapiens, UniProt O14842); test: Agonist activity at human GPR40 receptor expressed in CHOK1 cells assessed as induction of IP1 accumulation at 10 uM relative to AM1638; assay type: functional, cell-based; conditions: CHO-K1, filed as agonist
[10] = biological target: Free fatty acid receptor 1 (Rattus norvegicus) (UniProt Q8K3T4); test: Agonist activity at rat GPR40 receptor expressed in CHOK1 cells assessed as induction of IP1 accumulation at 10 uM; assay type: functional, cell-based; conditions: CHO-K1, filed as agonist
[11] = biological target: Free fatty acid receptor 1 (Rattus norvegicus) (UniProt Q8K3T4); test: Agonist activity at GPR40 receptor in rat INS1(832/13) cells assessed as induction of IP1 accumulation at 10 uM relative to TAK875; assay type: functional, cell-based; conditions: INS-1 832/13, filed as agonist
[12] = Oral bioavailability in rat; assay type: ADME, organism-based; conditions: in vivo
[13] = Drug metabolism in human assessed as (3S)-3-cyclopropyl-3-(3-((5-(5-fluoro-2-hydroxypyridin-4-yl)-6-isobutylpyrazin-2-yl)methoxy)phenyl)propanoic acid metabolite formation by MetID studies; assay type: ADME
[14] = biological target: Free fatty acid receptor 1 (Mus musculus, UniProt Q76JU9); test: Agonist activity at mouse GPR40 assessed as increase in intracellular calcium level; assay type: functional, cell-based
[15] = Apparent permeability across apical to basolateral side in human Caco2 cells; assay type: ADME, cell-based; conditions: Caco-2
[16] = Apparent permeability from apical to basolateral side in dog MDCK-MDR1 cells; assay type: ADME, cell-based, Canis lupus familiaris
[17] = Half life in iv dosed rat; assay type: ADME, organism-based; conditions: in vivo
[18] = biological target: Cytochrome P450 3A4 (Homo sapiens, UniProt P08684); test: Inhibition of CYP3A4 (unknown origin) using testosterone as substrate; assay type: ADME
[19] = Half life in iv dosed dog; assay type: ADME, organism-based, Canis lupus familiaris; conditions: in vivo
[20] = tested on: Rattus norvegicus; test: Anti-glycemic activity in fasted Sprague-Dawley ZDF rat assessed as reduction in post-prandial hyperglycemia by measuring AUC(0 to 2 hrs) for blood glucose at 10 mg/kg administered daily for 8 days and measured on day 8 by OGTT; assay type: functional; conditions: time 8 day
[21] = biological target: T2, Free fatty acid receptor 1; test: Agonist activity at GPR40 in human islets assessed as induction of glucose-stimulated insulin secretion at 0.3 to 10 uM; assay type: tissue-based; conditions: Pancreatic islet, filed as agonist, dose 0.3-10 µM
[22] = biological target: Free fatty acid receptor 1 (Rattus norvegicus) (UniProt Q8K3T4); test: Agonist activity at rat GPR40 receptor expressed in CHOK1 cells assessed as induction of IP1 accumulation at 10 uM relative to AM1638; assay type: functional, cell-based; conditions: CHO-K1, filed as agonist
[23] = biological target: T2, Free fatty acid receptor 1; test: Agonist activity at human GPR40 receptor expressed in CHOK1 cells assessed as induction of IP1 accumulation; assay type: functional, cell-based, CHO-K1
[24] = tested on: Rattus norvegicus; test: Anti-glycemic activity in fasted Sprague-Dawley ZDF rat assessed as reduction in post-prandial hyperglycemia by measuring AUC(0 to 2 hrs) for blood glucose at 3 mg/kg administered for 1 day and measured on day 1 by OGTT; assay type: functional
[25] = biological target: Cytochrome P450 2C19 (Homo sapiens, UniProt P33261); test: Inhibition of CYP2C19 (unknown origin); assay type: ADME
[26] = Oral bioavailability in cynomolgus monkey; assay type: ADME, organism-based, Macaca fascicularis; conditions: in vivo
[27] = biological target: T2, Free fatty acid receptor 1; test: Agonist activity at human GPR40 transfected in HEK293 cells assessed as increase in intracellular calcium level incubated for 1 hr by Fluo-8 dye based fluorescence analysis; assay type: functional, cell-based; conditions: hek293
[28] = Protein binding in dog plasma; assay type: ADME, cell-free, Canis lupus familiaris; conditions: read-out: PPB (converted)
[29] = Half life in iv dosed cynomolgus monkey; assay type: ADME, organism-based, Macaca fascicularis; conditions: in vivo
[30] = Hepatic clearance in human; assay type: ADME
[31] = Intrinsic clearance in dog assessed as half-life at 1 uM; assay type: ADME, Canis lupus familiaris
[32] = Hepatic clearance in dog; assay type: ADME, Canis lupus familiaris; conditions: in vivo
[33] = biological target: T2, Free fatty acid receptor 1; test: Agonist activity at human GPR40 receptor expressed in CHOK1 cells assessed as induction of IP1 accumulation at 10 uM relative to TAK875; assay type: functional, cell-based; conditions: CHO-K1, filed as agonist
[34] = Apparent permeability across basolateral to apical side in human Caco2 cells; assay type: ADME, cell-based; conditions: Caco-2
[35] = biological target: Free fatty acid receptor 1 (Rattus norvegicus) (UniProt Q8K3T4); test: Agonist activity at rat GPR40 receptor expressed in CHOK1 cells assessed as induction of IP1 accumulation at 10 uM relative to TAK875; assay type: functional, cell-based; conditions: CHO-K1, filed as agonist
[36] = biological target: T3, Cytochrome P450 2C8 (Homo sapiens, UniProt P10632); test: Inhibition of recombinant CYP2C8 (unknown origin); assay type: ADME
T3 sequence (P10632 whole entry): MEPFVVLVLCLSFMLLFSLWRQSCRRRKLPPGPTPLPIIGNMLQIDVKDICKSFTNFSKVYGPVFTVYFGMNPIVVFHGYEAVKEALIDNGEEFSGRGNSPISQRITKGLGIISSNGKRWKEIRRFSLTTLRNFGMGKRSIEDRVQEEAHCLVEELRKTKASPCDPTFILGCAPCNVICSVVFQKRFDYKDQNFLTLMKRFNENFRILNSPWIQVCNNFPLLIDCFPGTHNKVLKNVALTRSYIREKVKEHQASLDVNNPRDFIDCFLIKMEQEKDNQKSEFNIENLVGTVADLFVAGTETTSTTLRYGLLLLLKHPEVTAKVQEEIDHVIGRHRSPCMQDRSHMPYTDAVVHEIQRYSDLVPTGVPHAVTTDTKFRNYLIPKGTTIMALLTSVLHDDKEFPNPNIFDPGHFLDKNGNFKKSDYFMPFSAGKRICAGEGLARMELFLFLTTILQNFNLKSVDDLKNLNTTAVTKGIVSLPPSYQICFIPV

Free fatty acid receptor 1 (Rattus norvegicus), sequence (Q8K3T4 whole entry): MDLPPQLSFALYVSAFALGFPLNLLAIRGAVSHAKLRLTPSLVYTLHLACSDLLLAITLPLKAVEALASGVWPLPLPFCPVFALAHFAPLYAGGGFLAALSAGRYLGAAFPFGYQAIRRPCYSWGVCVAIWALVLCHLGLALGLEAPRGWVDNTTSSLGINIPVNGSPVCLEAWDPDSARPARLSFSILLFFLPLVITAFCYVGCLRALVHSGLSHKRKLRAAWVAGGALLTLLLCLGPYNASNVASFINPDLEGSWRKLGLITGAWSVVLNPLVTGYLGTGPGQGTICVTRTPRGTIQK
T2 sequence (O14842 whole entry): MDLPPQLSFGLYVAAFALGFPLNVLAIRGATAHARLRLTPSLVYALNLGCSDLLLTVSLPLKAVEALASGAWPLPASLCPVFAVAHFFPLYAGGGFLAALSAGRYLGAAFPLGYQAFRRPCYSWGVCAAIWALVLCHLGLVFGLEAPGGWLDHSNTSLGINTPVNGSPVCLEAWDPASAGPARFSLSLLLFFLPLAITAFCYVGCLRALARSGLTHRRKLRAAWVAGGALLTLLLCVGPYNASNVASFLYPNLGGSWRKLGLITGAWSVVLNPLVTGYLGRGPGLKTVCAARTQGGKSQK
Cytochrome P450 3A4, sequence (P08684 whole entry): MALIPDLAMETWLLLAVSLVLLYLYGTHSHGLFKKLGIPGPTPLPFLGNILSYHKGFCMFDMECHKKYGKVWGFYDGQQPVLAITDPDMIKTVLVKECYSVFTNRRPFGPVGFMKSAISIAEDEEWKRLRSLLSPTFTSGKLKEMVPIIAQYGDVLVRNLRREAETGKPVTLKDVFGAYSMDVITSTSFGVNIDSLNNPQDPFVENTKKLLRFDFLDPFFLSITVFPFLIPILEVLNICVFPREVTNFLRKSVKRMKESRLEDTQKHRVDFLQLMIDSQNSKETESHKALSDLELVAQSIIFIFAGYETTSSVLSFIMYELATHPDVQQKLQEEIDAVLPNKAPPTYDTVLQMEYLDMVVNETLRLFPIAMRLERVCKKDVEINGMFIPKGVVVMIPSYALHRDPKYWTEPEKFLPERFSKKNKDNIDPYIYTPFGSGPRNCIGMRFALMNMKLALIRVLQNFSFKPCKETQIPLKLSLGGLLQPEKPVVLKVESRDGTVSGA
Free fatty acid receptor 1 (Rattus norvegicus, UniProt Q8K3T4), sequence (Q8K3T4 whole entry): as the sequence (Q8K3T4 whole entry) above
Cytochrome P450 2C19, sequence (P33261 whole entry): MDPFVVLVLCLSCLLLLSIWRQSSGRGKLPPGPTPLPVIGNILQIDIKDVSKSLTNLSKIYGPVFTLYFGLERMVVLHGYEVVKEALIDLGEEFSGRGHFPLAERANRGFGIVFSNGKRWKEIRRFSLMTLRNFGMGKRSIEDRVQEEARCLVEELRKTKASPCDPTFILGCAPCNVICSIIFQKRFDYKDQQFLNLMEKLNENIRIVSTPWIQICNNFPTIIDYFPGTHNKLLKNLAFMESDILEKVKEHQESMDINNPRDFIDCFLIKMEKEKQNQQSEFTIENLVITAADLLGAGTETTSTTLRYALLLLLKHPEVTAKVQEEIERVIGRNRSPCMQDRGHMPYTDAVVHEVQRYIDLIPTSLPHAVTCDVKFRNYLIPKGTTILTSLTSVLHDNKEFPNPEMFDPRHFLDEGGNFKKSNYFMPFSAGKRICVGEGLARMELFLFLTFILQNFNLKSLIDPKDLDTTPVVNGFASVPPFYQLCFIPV
Free fatty acid receptor 1 (Mus musculus, UniProt Q76JU9), sequence (Q76JU9 whole entry): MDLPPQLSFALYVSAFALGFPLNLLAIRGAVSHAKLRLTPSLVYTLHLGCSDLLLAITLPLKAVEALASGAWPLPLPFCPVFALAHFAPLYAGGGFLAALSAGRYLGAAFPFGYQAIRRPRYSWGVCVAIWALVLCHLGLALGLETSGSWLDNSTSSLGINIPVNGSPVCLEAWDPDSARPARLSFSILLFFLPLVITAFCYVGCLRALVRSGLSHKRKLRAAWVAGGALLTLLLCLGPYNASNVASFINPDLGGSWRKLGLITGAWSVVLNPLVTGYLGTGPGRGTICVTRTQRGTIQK

**Q.** Which results are given for COc1cc(-c2ncc(COc3cccc([C@@H](CC(=O)O)C4CC4)c3)nc2CC(C)C)c(F)cn1?
**A.** EC50 [1]: 862 nM; CLH [2]: 26.8 mL/min/kg; Activity [3]: 1170 nM; Drug metabolism [4]: Metabolite_Detected; Cmax [5]: 1550 ng/mL; bioavailability [6]: 33.6%; Activity [7]: inactive; fraction unbound [8]: 0.0012; Activity [9]: 121%; Activity [10]: 572 nM; Activity [11]: 208%; bioavailability [12]: 123%; Drug metabolism [13]: Metabolite_Detected; EC50 [14]: 38 nM; Papp A→B [15]: 40 ×10⁻⁶ cm/s; Papp A→B [16]: 50 ×10⁻⁶ cm/s; half-life [17]: 2.71 h; IC50 [18]: > 10000 nM; half-life [19]: 4.82 h; Activity [20]: 51024 ng/mL.hr; Activity [21]: Active; Activity [22]: 95%; EC50 [23]: 894 nM; Activity [24]: 15896 ng/mL.hr; IC50 [25]: > 10000 nM; bioavailability [26]: 99.4%; EC50 [27]: 2 nM; fraction unbound [28]: 0.0045; half-life [29]: 11.2 h; CLH [30]: 8.9 mL/min/kg; half-life at 1 µM [31]: 1.38 h; CLH [32]: 13.5 mL/min/kg; Activity [33]: 354%; Papp B→A [34]: 40 ×10⁻⁶ cm/s; Activity [35]: 167%; IC50 [36]: 9800 nM
